From US20180360799A1, “Nitrofuran Derivatives That Induce Apoptosis in Breast Cancer Cells by Activating Protein Expression” (Oklahoma Medical Research Foundation, priority 2015, published 2018)

Legend:
Format in all cases: cell-based, human
[1] = tested on: XBP1 mRNA splicing (IRE1α pathway); assay: XBP1 mRNA splicing by RT-PCR in HCC-1806 cells; conditions: HCC-1806, 3d 10 μM, at 2~24 h (11% at 0 h)
Experimental: FIG. 3E is a graph showing XBP1 mRNA levels in HCC-1806 cells treated with tunicamycin or a 5-nitrofuran-2-amide derivative compound 3d. HCC-1806 cells were treated with compound 3d (10 μM) or tunicamycin (Tm, 1 μg/mL) for the indicated times. XBP1 mRNA levels were analyzed by RT-PCR and the products were resolved by agarose gel electrophoresis. The full-length (unspliced, XBP1u) and spliced (XBP1s) forms of XBP1 mRNA are indicated. GAPDH mRNA was used as an internal control.
The percentage of XBP1s relative to total XBP1 was calculated as: (XBP1s/[XBP1s+XBP1u])×100%. The data shown are representative of 3 independent studies.
The inventor next asked whether the IRE1α and ATF6 branches of the unfolded protein response were also activated by compound 3d treatment of TNBC cells. […] XBP1 mRNA splicing, as measured by XBP1s levels, increased only slightly in the first 24 h after compound 3d treatment of HCC-1806 cells (from 11% of total XBP1 at 0 h to 15˜20% at 2˜24 h). […] Next, it was determined whether compound 3d activates the ATF6 pathway by evaluating its effect on the activity of an ER stress response elements (ERSE)-Luc reporter stably established in HEK293 cell line. […]

ATF4 mRNA = ATF4 mRNA by qRT-PCR; conditions: 10 μM, indicated times
From the text: Results are the means of 4 replicate wells and are representative of 3 independent studies. *P<0.05 by Student's t-test compared with DMSO-treated cells. Prolonged or severe ER stress activates CHOP expression primarily through the PERK branch of the unfolded protein response, although the IRE1α and ATF6 branches also contribute.^5, 18 The 5-nitrofuran-2-amide derivatives could induce CHOP expression by acting as an ER stressor that activates all three branches of unfolded protein response or by preferentially activating a select branch of unfolded protein response. To distinguish between these possibilities, the inventor investigated which branches of the unfolded protein response were affected by compound 3d. […] Total RNA was extracted using TRIzol reagent (Invitrogen, Carlsbad, Calif.) according to the manufacturer's protocol, and 2 μg of total RNA was reverse transcribed using a Superscript kit (Invitrogen). Real-time PCR was performed in 96-well format using SYBR Select Master Mix (Applied Biosystems, Foster City, Calif.) with an ABI 7500 PCR system (Applied Biosystems). The primer sequences used were: Human CHOP: SEQ ID NO: 1 [NT] and SEQ ID NO: 2 [NT]. Human ATF4: SEQ ID NO: 3 [NT] and SEQ ID NO: 4 [NT]. Human XBP1: SEQ ID NO: 5 [NT] and SEQ ID NO: 6 [NT]. Human Cyclophilin A: SEQ ID NO: 7 [NT] and SEQ ID NO: 8 [NT]. Human GAPDH: SEQ ID NO: 9 [NT] and SEQ ID NO: 10 [NT].

[2] = tested on: ER stress response elements (ERSE)-Luc reporter; assay: ERSE-Luc reporter assay in HEK293 cells; conditions: 10 μM, 24 h
Experimental: FIG. 3G is a graph showing HEK293 cells stably expressing CHOP-Luc, ERSE-Luc, or UPRE-luc reporters were treated with DMSO, a 5-nitrofuran-2-amide derivative, or tunicamycin. HEK293 cells stably expressing CHOP-Luc, ERSE-Luc, or UPRE-luc reporters were treated with DMSO, compound 3d (10 μM), or Tm (1 μg/mL) for 24 h, and luciferase activity was measured using the Bright-Glo assay. Results are the means of 4 replicate wells and are representative of 3 independent experiments.
The inventor next asked whether the IRE1α and ATF6 branches of the unfolded protein response were also activated by compound 3d treatment of TNBC cells. […] XBP1 mRNA splicing, as measured by XBP1s levels, increased only slightly in the first 24 h after compound 3d treatment of HCC-1806 cells (from 11% of total XBP1 at 0 h to 15˜20% at 2˜24 h). […] Next, it was determined whether compound 3d activates the ATF6 pathway by evaluating its effect on the activity of an ER stress response elements (ERSE)-Luc reporter stably established in HEK293 cell line.
The HEK293T CHOP reporter cell line (CHOP-Luc) was previously described.^21 HEK293T cells were stably transfected with ERSE-Luciferase^25 and UPRE-Luciferase^23 reporters to generate ERSE-Luc and UPRE-Luc reporter cell lines, respectively. […] Luciferase activity was measured with a Bright-Glo kit 24 h later.

HCC-1806 cells = assay: Live-cell phase-contrast microscopy of HCC-1806 cells; conditions: near confluent HCC-1806, 10 μM, 24 h
Experimental: FIG. 2A is an image showing apoptosis of HCC-1806 cells after treatment with a 5-nitrofuran-2-amide derivative compound 3d (above). Cells were treated with 3d (10 μM) for the indicated times, and cleavage of caspase-3 was determined by Western blotting. α-Tubulin was used as a loading control. The data shown are representative of 3 independent studies. FIGS. 2B and 2C are live-cell phase-contrast images (magnification 10×) showing treatment with DMSO and (10 μM) 5-nitrofuran-2-amide derivative compound 3d respectively for 24 h. To determine whether the reduction in TNBC cell viability by the 5-nitrofuran-2-amide derivatives was due to the induction of apoptosis, the inventor analyzed cleavage of caspase-3, a critical executioner of apoptosis, in HCC-1806 cells treated with compound 3d. […] To confirm this, HCC-1806 cells were cultured to near confluence and treated with 10 μM 3d or DMSO for 24 h and then imaged by live-cell phase-contrast microscopy.

For `CC1CCN(c2ccc(NC(=O)c3ccc([N+](=O)[O-])o3)cc2)CC1` [Compound 3d], the “XBP1s, percentage of total XBP1” value [1] was 15˜20%, the “ATF4 expression, mRNA” value (ATF4 mRNA) was “significantly increased ATF4 expression” and the “effect on ERSE-driven luciferase activity, in words” value [2] was “no significant effect”. The “cell death seen by phase-contrast imaging” value (HCC-1806 cells) was “few cells were observed”.
